How the values were obtained:
gastric emptying = gastric emptying of a charcoal meal in the mouse, oral route; format: in vivo, Female Swiss albino CD1 mice; details: p.o., 60 minutes before charcoal meal, read-out: ED50 inhibition of gastric emptying
Description: their agonist effect by the oral route on gastric drainage in the mouse.
An in vivo study of the agonist effect of the compounds on gastric emptying was carried out as follows. Female Swiss albino CD1 mice (20-25 g) are placed on a solid fast for 18 hours. On the day of the experiment, the products are administered orally 60 minutes before the administration of a charcoal meal (0.3 ml per mouse of a suspension in water of 10% charcoal powder, 5% gum arabic and 1% carboxymethylcellulose). The mice are sacrificed 5 minutes later by cervical dislocation, and the gastric emptying is defined as the presence of charcoal in the intestine beyond the pyloric sphincter (Europ. J. Pharmacol., 1993, 232, 13-19).

human CCK1 receptor = target: T1, human CCK1 receptor (Homo sapiens, UniProt P32238); test: in vitro binding to CCK1 receptor ([125I]-CCK displacement)
T1 construct: expressed in transfected cells; host or cells: 3T3 cells
T1 sequence (P32238 1-428): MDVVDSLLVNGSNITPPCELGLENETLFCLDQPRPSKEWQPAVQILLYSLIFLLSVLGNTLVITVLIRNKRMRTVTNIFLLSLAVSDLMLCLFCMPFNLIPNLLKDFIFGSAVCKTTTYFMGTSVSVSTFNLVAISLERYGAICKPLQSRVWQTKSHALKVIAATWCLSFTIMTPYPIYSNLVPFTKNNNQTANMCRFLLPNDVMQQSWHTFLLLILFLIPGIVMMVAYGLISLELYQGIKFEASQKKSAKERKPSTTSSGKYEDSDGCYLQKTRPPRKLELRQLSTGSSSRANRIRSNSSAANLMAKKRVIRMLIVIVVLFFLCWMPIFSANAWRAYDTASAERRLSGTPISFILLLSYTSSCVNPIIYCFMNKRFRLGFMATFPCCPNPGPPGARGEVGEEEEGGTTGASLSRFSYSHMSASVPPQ
Description: their potentiality for displacing [^125I]-CCK from its binding sites present in rat pancreatic membranes (CCK1 receptor) or 3T3 cells expressing recombinant human CCK1 receptor;
(§1) The compounds of formula (I) underwent studies of in vitro binding to CCK1 and CCK2 receptors, using the method described in Europ. J. Pharmacol., 1993, 232, 13-19. […] The agonist activity of the compounds towards CCK1 receptors was evaluated in vitro in 3T3 cells expressing the human CCK1 receptor, by measuring the mobilization of the intracellular calcium ([Ca^++]i), according to a technique derived from that of Lignon M F et al., Eur. J. Pharmacol., 1993, 245, 241-245. The calcium concentration [Ca^++]i is evaluated with Fura-2 by the double excitation wavelength method. The ratio of the fluorescence emitted at two wavelengths gives the concentration of [Ca^++]i, after calibration (Grynkiewiez G. et al., J. Biol. Chem., 1985, 260, 3440-3450).

human CCK2 receptor = target: T2, human CCK2 receptor (Homo sapiens, UniProt P32239); test: in vitro binding to CCK2 receptor; details: read-out: IC50 (affinity, human CCK2 receptor)
T2 sequence (P32239 1-447): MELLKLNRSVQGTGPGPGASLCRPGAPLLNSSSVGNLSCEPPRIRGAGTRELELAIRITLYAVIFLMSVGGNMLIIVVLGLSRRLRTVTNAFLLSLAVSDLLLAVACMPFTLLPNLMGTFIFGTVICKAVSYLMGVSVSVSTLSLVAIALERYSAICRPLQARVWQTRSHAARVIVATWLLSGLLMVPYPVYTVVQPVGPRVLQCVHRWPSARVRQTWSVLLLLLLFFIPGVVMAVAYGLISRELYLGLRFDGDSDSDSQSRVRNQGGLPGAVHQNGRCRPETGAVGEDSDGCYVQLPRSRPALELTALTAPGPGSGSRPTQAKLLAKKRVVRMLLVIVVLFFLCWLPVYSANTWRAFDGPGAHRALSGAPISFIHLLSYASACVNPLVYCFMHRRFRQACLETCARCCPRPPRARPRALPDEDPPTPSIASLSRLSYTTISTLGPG
Description: their selectivity for the CCK2 receptor;
as §1

[1] = target: T3, 3T3 cells expressing the human CCK1 receptor (Homo sapiens, UniProt P32238); test: mobilization of intracellular calcium ([Ca++]i), Fura-2; format: cell-based; details: read-out: EC50 [Ca++]i release
T3 construct: expressed in transfected cells; host or cells: 3T3 cells
T3 sequence (P32238 1-428): T1 sequence (P32238 1-428)
Description: their CCK1 receptor agonist property, by way of their capacity to induce mobilization of intracellular calcium in vitro in 3T3 cells expressing the human CCK1 receptor;
as §1

COc1cc(-c2nc(NC(=O)c3cc4c(C)c(C)c(OC)cc4n3CCC(=O)O)nn2CCC2CCCCC2)c(OC)cc1C.NCCO [Example 3, 3-[2-[[[1-(2-cyclohexylethyl)-5-(2,5-dimethoxy-4-methylphenyl)-1H-1,2,4-triazol-3-yl]amino]carbonyl]-6-methoxy-4,5-dimethyl-1H-indol-1-yl]propionic acid ethanolamine salt]
ED50 (gastric emptying): 0.027 mg/kg

CCNCC.COc1cc(-c2nc(NC(=O)c3cc4c(C)c(C)c(OC)cc4n3CCC(=O)O)nn2CCC2CCCCC2)c(OC)cc1C
melting point: 143 °C (dec.)

COc1cc(-c2nc(NC(=O)c3cc4c(C)c(C)c(OC)cc4n3CCC(=O)[O-])nn2CCC2CCCCC2)c(OC)cc1C.[K+] [Example 1, 3-[2-[[[1-(2-cyclohexylethyl)-5-(2,5-dimethoxy-4-methylphenyl)-1H-1,2,4-triazol-3-yl]amino]carbonyl]-6-methoxy-4,5-dimethyl-1H-indol-1-yl]propionic acid, Potassium Salt]
IC50 (human CCK1 receptor; human CCK1 receptor, read-out: IC50 (affinity, human CCK1 receptor)): 0.4 nM | selectivity (affinity CCK1 receptor versus affinity of CCK2 receptor) (human CCK1 receptor; human CCK1 versus human CCK2): > 500 fold | IC50 (human CCK2 receptor): 234 nM | EC50 [1]: ~1 nM

Reference: patent publication US20040019091A1, “Triazole derivatives and pharmaceutical compositions comprising them” (priority 2000, published 2004)
